43 compounds from patent publication US4002623A, “Anti-inflammatory 1-[3-(dialkylamino)propyl]-2-acylaminobenzimidazoles and 2-acylamino-3-[3-(dialkylamino)-propyl]imidazo[4,5-b]pyridines” (Pfizer Inc., priority 1974, dated 1977) can be followed below.

The first experiment in a line: adjuvant arthritis screen (Walz et al.), swelling of the non-injected left hind foot on Day 16. It is filed as in vivo, male inbred Lewis rats. The conditions noted are these: Rattus norvegicus, 384 h, 10 mg./kg. ip, daily day -1 through day 15, read-out: Activity Percent Inhibition. From the text:
The adjuvant arthritis test described by Walz et al., Ann. Rheum. Dis., 30, 303 (1971) was selected as the method of choice for the determination of the extent of which the novel compounds of the present invention are therapeutically effective as anti-inflammatory agents. Adjuvant arthritis is a crippling deformity in rats resulting from diffuse connective tissue involvement. It is considered by some authorities to be the best available experimental animal model of human rheumatoid arthritis because of its strong clinical and pathological similarities to the human disease and because it can be effectively treated with known anti-arthritic drugs. In this test, lesions resembling those of human rheumatoid arthritis are induced by the injection of complete Freund's adjuvant into one hind leg of a rat. A vigorous inflammatory response occurs in the injected hind leg and reaches its greatest size in about four days. This primary response is followed by the development of a second inflammatory response, appearing about 12-16 days post-injection, that occurs in the uninjected hind leg. While the compounds of the invention are capable of inhibiting the degree of inflammation in both legs, the inhibition of swelling in the uninjected leg at 16 days is considered to be the more meaningful measure of antiarthritic activity.
The adjuvant arthritis screen as described by Walz et al. (Ann. Rheum. Dis., 30: 303 (1971), was used to evaluate the above prepared compounds.
The screen is conducted using male inbred Lewis rats weighing approximately 250 gm. The animals are dosed with drug beginning on day- 1 and continuing daily through day 15. On Day 0, the subplanter surface of the right hind paw is injected with 0.1cc of a 1% suspension of Mycobacterium butyricum (Freunds adjuvant) in Primol (Esso). The swelling of the non-injected left hind foot on Day 16, resulting from immune response to adjuvant, was determined for dosed animals and controls. The foot volume is measured by immersing the paw to the anatomical hairline into a mercury reservoir which is connected to a Statham pressure transducer and a recording device. The results are expressed as % inhibition calculated according to the following equation: [formula] The results obtained are as follows for [drawing 22] where Z is --N(CH3)2 and X is carbon: […]
For `O=C(Nc1nc2ccccc2n1CCCN1CCN(Cc2ccccc2)CC1)c1ccccc1` [Phenyl; H; H; drawing 27], the inhibition in vivo at 10 mg/kg was 44%.

With `COc1ccc(C(=O)Nc2nc3ccccc3n2CCCN2CCN(Cc3ccccc3)CC2)cc1` [4-Methoxyphenyl; H; H; drawing 27], the inhibition in vivo at 10 mg/kg stood at 32%.

As to `CN(C)CCCn1c(NC(=O)c2ccc(Cl)cc2)nc2ccccc21` [4-Chlorophenyl; H; H; Z = N(CH3)2, 1-[3-(dimethylamino)propyl]-2-(4-chlorobenzamido)-benzimidazole], the inhibition in vivo at 10 mg/kg came out at 27%.

Regarding `O=C(Nc1nc2ccccc2n1CCCN1CCN(Cc2ccccc2)CC1)c1ccc(Cl)c(Cl)c1` [3,4-Dichlorophenyl; H; H; drawing 27], the inhibition in vivo at 10 mg/kg is 19%.

The experiment is the same for the next values; noted with them: Rattus norvegicus, 384 h, 10 mg./kg. po, daily day -1 through day 15, read-out: Activity Percent Inhibition.
In the case of `O=C(Nc1nc2ccccc2n1CCCN1CCNCC1)c1cccc(C(F)(F)F)c1` [3-Trifluoromethylphenyl; H; H; drawing 28], the inhibition in vivo at 10 mg/kg is 13%.

For the compound `COc1ccc2c(c1)nc(NC(=O)c1ccc(Cl)c(Cl)c1)n2CCCN1CCN(C)CC1` [3,4-Dichlorophenyl; OCH3; H; drawing 24, 1-[3-(4-methyl-1-piperazinyl)propyl]-2-(3,4-dichlorobenzamido)-5-methoxybenzimidazole], the inhibition in vivo at 10 mg/kg came to 35%.

As to `CN1CCN(CCCn2c(NC(=O)c3ccc(C(F)(F)F)cc3)nc3cc(Cl)ccc32)CC1` [4-Trifluoromethylphenyl; Cl; H; drawing 24, 1-[3-(4-methyl-1-piperazinyl)propyl]-2-(4-trifluoromethylbenzamido)-5-chlorobenzimidazole], the inhibition in vivo at 10 mg/kg is 38%.

As to `COc1ccc2c(c1)nc(NC(=O)C=Cc1ccc(Cl)cc1)n2CCCN1CCN(C)CC1` [4-Chlorostyryl; OCH3; H; drawing 24], the inhibition in vivo at 10 mg/kg is 47%.

As for `COc1ccc(C(=O)Nc2nc3ccccc3n2CCCN(C)C)cc1` [4-Methoxyphenyl; H; H; Z = N(CH3)2, 1-[3-(dimethylamino)propyl]-2-(4-methyoxybenzamido-)benzimidazole], the inhibition in vivo at 10 mg/kg amounted to 12%.

In the case of `CN1CCN(CCCn2c(NC(=O)c3cccc(C(F)(F)F)c3)nc3ccccc32)CC1` [3-Trifluoromethylphenyl; H; H; drawing 24], the inhibition in vivo at 10 mg/kg was 18%.

Regarding `CN1CCN(CCCn2c(NC(=O)c3ccc(Cl)c(Cl)c3)nc3cccnc32)CC1` [3,4-Dichlorophenyl; H; H; drawing 25, 2-(3,4-dichlorobenzamido)-3-[4-(methyl-1-piperazino)-propyl]imidazo[4,5-b]pyridine], the inhibition in vivo at 10 mg/kg was found to be 27%.

Staying with this experiment, now noted: Rattus norvegicus, 384 h, 20 mg./kg. po, daily day -1 through day 15, read-out: Activity Percent Inhibition.
As to `Cc1cc2nc(NC(=O)c3ccc(C(F)(F)F)cc3)n(CCCN3CCN(C)CC3)c2cc1C`, the inhibition in vivo at 20 mg/kg was found to be 29%.

Regarding `CN1CCN(CCCn2c(NC(=O)c3cc(C(F)(F)F)cc(C(F)(F)F)c3)nc3ccccc32)CC1`, the inhibition in vivo at 20 mg/kg was found to be 32%.

On to `COc1ccc(C(=O)Nc2nc3cc(S(=O)(=O)N(C)C)ccc3n2CCCN2CCN(C)CC2)cc1` [4-Methoxyphenyl; SO2 N(CH3)2; H; drawing 24], for which the inhibition in vivo at 20 mg/kg turned out to be 27%.

For the compound `Cc1ccc2c(c1)nc(NC(=O)c1cccc(Cl)c1)n2CCCN1CCN(C)CC1` [3-Chlorophenyl; CH3; H; drawing 24], the inhibition in vivo at 20 mg/kg turned out to be 29%.

With `Cc1ccc2nc(NC(=O)c3ccc(C(F)(F)F)cc3)n(CCCN3CCN(C)CC3)c2c1` [4-Trifluoromethylphenyl; H; CH3; drawing 24], the inhibition in vivo at 20 mg/kg was 50%.

Turning to `Cc1ccc2nc(NC(=O)c3ccccc3)n(CCCN3CCN(C)CC3)c2c1` [Phenyl; H; CH3; drawing 24], the inhibition in vivo at 20 mg/kg is 23%.

In the case of `CN1CCN(CCCn2c(NC(=O)c3ccc(C(F)(F)F)cc3)nc3cccnc32)CC1` [4-Trifluoromethylphenyl; H; H; drawing 25], the inhibition in vivo at 20 mg/kg came out at 14%.

Consider `CN1CCN(CCCn2c(NC(=O)c3ccco3)nc3ccccc32)CC1` [2-Furyl; H; H; drawing 24, 1-[3-(4-methyl-1-piperazinyl)propyl]-2-(2-furamido)-benzimidazole], for which the inhibition in vivo at 20 mg/kg came out at 43%.

In the case of `Cc1ccc2nc(NC(=O)c3cccc(C(F)(F)F)c3)n(CCCN3CCN(C)CC3)c2c1` [3-Trifluoromethylphenyl; H; CH3; drawing 24], the inhibition in vivo at 20 mg/kg stood at 21%.

For the compound `Cc1ccc2nc(NC(=O)c3ccc(Cl)c(Cl)c3)n(CCCN3CCN(C)CC3)c2c1` [3,4-Dichlorophenyl; H; CH3; drawing 24], the inhibition in vivo at 20 mg/kg was 22%.

For the compound `Cc1ccc2c(c1)nc(NC(=O)c1ccc(Cl)cc1)n2CCCN1CCN(C)CC1` [4-Chlorophenyl; CH3; H; drawing 24], the inhibition in vivo at 20 mg/kg was determined as 27%.

As for `CN1CCN(CCCn2c(NC(=O)c3ccc(Cl)c(Cl)c3)nc3cccnc32)CC1` [3,4-Dichlorophenyl; H; H; drawing 25, 2-(3,4-dichlorobenzamido)-3-[4-(methyl-1-piperazino)-propyl]imidazo[4,5-b]pyridine], the inhibition in vivo at 20 mg/kg came to 41%.

Staying with this experiment, now noted: Rattus norvegicus, 384 h, 33 mg./kg. ip, daily day -1 through day 15, read-out: Activity Percent Inhibition.
`COc1cccc(C(=O)Nc2nc3cc(Cl)ccc3n2CCCN2CCN(C)CC2)c1` [3-Methoxyphenyl; Cl; H; drawing 24]: the inhibition in vivo at 33 mg/kg worked out at 17%.

Take `O=C(Nc1nc2ccccc2n1CCCN1CCCCC1)c1ccc(C(F)(F)F)cc1` [4-Trifluoromethylphenyl; H; H; drawing 26, 1-[3-(1-piperidinyl)propyl]-2-(4-trifluoromethylbenzamido)benzimidazole]: the inhibition in vivo at 33 mg/kg is 79%.

On to `CC(C)(C)CC(=O)Nc1nc2ccccc2n1CCCN1CCOCC1` [(CH3)3 CCH2; H; H; drawing 23], for which the inhibition in vivo at 33 mg/kg was found to be 13%.

Take `O=C(Nc1nc2ccccc2n1CCCN1CCOCC1)c1ccc(C(F)(F)F)cc1` [4-Trifluoromethylphenyl; H; H; drawing 23]: the inhibition in vivo at 33 mg/kg was 35%.

Take `Cc1cccc(C(=O)Nc2nc3ccccc3n2CCCN2CCOCC2)c1` [3-Methylphenyl; H; H; drawing 23]: the inhibition in vivo at 33 mg/kg came to 40%.

As for `CN1CCN(CCCn2c(NC(=O)c3ccc(-c4ccccc4)cc3)nc3ccccc32)CC1` [p-Phenylphenyl; H; H; drawing 24], the inhibition in vivo at 33 mg/kg worked out at 46%.

`COc1cccc(C(=O)Nc2nc3ccccc3n2CCCN2CCCCC2)c1` [3-Methoxyphenyl; H; H; drawing 26]: the inhibition in vivo at 33 mg/kg was 52%.

With `CN1CCN(CCCn2c(NC(=O)c3cc(Cl)cc(Cl)c3)nc3ccccc32)CC1` [3,5-Dichlorophenyl; H; H; drawing 24], the inhibition in vivo at 33 mg/kg was found to be 31%.

On to `O=C(Nc1nc2ccccc2n1CCCN1CCCCC1)c1ccco1` [Furyl; H; H; drawing 26], for which the inhibition in vivo at 33 mg/kg was 12%.

In the case of `CN1CCN(CCCn2c(NC(=O)c3cccc(Cl)c3)nc3cc(Cl)c(Cl)cc32)CC1` [3-Chlorophenyl; Cl; Cl; drawing 24], the inhibition in vivo at 33 mg/kg stood at 66%.

Regarding `CN1CCN(CCCn2c(NC(=O)c3ccc(C(F)(F)F)cc3)nc3cc(Cl)ccc32)CC1` [4-Trifluoromethylphenyl; Cl; H; drawing 24, 1-[3-(4-methyl-1-piperazinyl)propyl]-2-(4-trifluoromethylbenzamido)-5-chlorobenzimidazole], the inhibition in vivo at 33 mg/kg worked out at 72%.

On to `CN(C)CCCn1c(NC(=O)C=Cc2ccccc2Cl)nc2ccccc21` [2-Chlorostyryl; H; H; Z = N(CH3)2], for which the inhibition in vivo at 33 mg/kg is 45%.

Take `CN1CCN(CCCn2c(NC(=O)c3ccc(Cl)cc3)nc3ccccc32)CC1` [4-Chlorophenyl; H; H; drawing 24]: the inhibition in vivo at 33 mg/kg came out at 43%.

On to `COc1ccc(C(=O)Nc2nc3ccccc3n2CCCN(C)C)cc1` [4-Methoxyphenyl; H; H; Z = N(CH3)2, 1-[3-(dimethylamino)propyl]-2-(4-methyoxybenzamido-)benzimidazole], for which the inhibition in vivo at 33 mg/kg was found to be 59%.

As to `O=C(Nc1nc2ccccc2n1CCCN1CCCCC1)c1cccc(Cl)c1` [3-Chlorophenyl; H; H; drawing 26], the inhibition in vivo at 33 mg/kg turned out to be 34%.

Turning to `O=C(Nc1nc2ccccc2n1CCCN1CCOCC1)c1ccc(Cl)cc1` [4-Chlorophenyl; H; H; drawing 23], the inhibition in vivo at 33 mg/kg was 15%.

On to `COc1cccc(C(=O)Nc2nc3ccccc3n2CCCN2CCOCC2)c1` [3-Methoxyphenyl; H; H; drawing 23], for which the inhibition in vivo at 33 mg/kg was found to be 29%.

On to `CN1CCN(CCCn2c(NC(=O)C3CCC3)nc3ccccc32)CC1` [Cyclobutyl; H; H; drawing 24], for which the inhibition in vivo at 33 mg/kg was found to be 34%.

With `COc1ccc(C(=O)Nc2nc3ccccc3n2CCCN2CCN(C)CC2)cc1` [4-Methoxyphenyl; H; H; drawing 24], the inhibition in vivo at 33 mg/kg worked out at 27%.

On to `O=C(Nc1nc2ccccc2n1CCCN1CCCCC1)c1cccc(F)c1` [3-Fluorophenyl; H; H; drawing 26], for which the inhibition in vivo at 33 mg/kg stood at 27%.

As to `CN(C)CCCn1c(NC(=O)c2ccc(Cl)cc2)nc2ccccc21` [4-Chlorophenyl; H; H; Z = N(CH3)2, 1-[3-(dimethylamino)propyl]-2-(4-chlorobenzamido)-benzimidazole], the inhibition in vivo at 33 mg/kg was 51%.

On to `CN1CCN(CCCn2c(NC(=O)c3cccc(C(F)(F)F)c3)nc3ccccc32)CC1` [3-Trifluoromethylphenyl; H; H; drawing 24], for which the inhibition in vivo at 33 mg/kg worked out at 79%.

Turning to `CN1CCN(CCCn2c(NC(=O)c3ccccc3)nc3cc(C(F)(F)F)ccc32)CC1` [Phenyl; CF3; H; drawing 24], the inhibition in vivo at 33 mg/kg stood at 29%.

On to `CN1CCN(CCCn2c(NC(=O)c3cccc(F)c3)nc3ccccc32)CC1` [3-Fluorophenyl; H; H; drawing 24], for which the inhibition in vivo at 33 mg/kg stood at 34%.

For `CN(C)CCCn1c(NC(=O)C=Cc2ccc(Cl)cc2)nc2ccccc21` [4-Chlorostyryl; H; H; Z = N(CH3)2], the inhibition in vivo at 33 mg/kg was 33%.
